Measurements as given in article PMC7395068, “The evolution of strategies to minimise the risk of human drug-induced liver injury (DILI) in drug discovery and development” (Archives of Toxicology, 2020).

Key:
[1] = Total human plasma exposure Cmax.tot; type: in vivo; details: across literature references
HepaRG cells = details: HepaRG cells, BMCs in relation to 10 × human Cmax.tot; ref National Toxicology Program; cited from earlier work

Structure (SMILES)	difference in Cmax.tot values utilised across studies [1]	DILI identification by high-throughput transcriptomics (HepaRG cells)
CC(C)C(=O)Nc1ccc([N+](=O)[O-])c(C(F)(F)F)c1 [flutamide, reference compound]	16.6 fold	
Cc1c(C)c2c(c(C)c1O)CCC(C)(COc1ccc(CC3SC(=O)NC3=O)cc1)O2 (centres unmarked) [troglitazone, reference compound]		identified
